# Data from patent US7312223B2, “Metabolite of xanthine Phosphodiesterase 5 inhibitor and derivatives thereof useful for treatment of erectile dysfunction” (Schering Corporation, priority 2003, dated 2007).
# “Also recorded” adds a separate entry of the source.
# Tests used:
# [1] = Incubation of Compound A with pooled human liver microsomes and NADPH-generating system; assay type: in vitro ADME
# Procedure: (§1) Compound C was prepared via a biotransformation from Compound A. In vitro incubations of Compound A (1, 5 and 50 μM) were performed with pooled human liver microsomes and CYP3A4 SUPERSOMES®. This radiolabel allowed tracking of all the metabolites of Compound A. For this procedure, Compound A was synthesized by inserting a ^14C in the 4 position as indicated in the ring member numbering scheme below.
# (§2) Incubation mixtures contained cytochrome P450 (1 nmol/mL for human liver microsomes or 0.2 nmol/mL for CYP3A4), β-NADP^+ (1 mM), glucose-6-phosphate (5 mM), glucose-6-phosphate dehydrogenase (1.5 units/mL) and 3 mM magnesium chloride in 0.5 mL of 50 mM potassium phosphate buffer (pH 7.4). Prior to the addition of drug, incubation mixtures were pre-incubated for 3 min at about 37° C. […] Boiled human liver microsomes and incubations without NADPH served as negative control. […]
# (§3) Radiometric profiles of metabolites following 120 min incubation of Compound A (50 μM) with CYP3A4, Human Liver Microsomes, and Insect Microsomes, all with a NADPH-generating system, are shown in FIGS. 1, 2, and 3, respectively. In these figures, the y-axis reflects radioactivity of the eluted species and has units of counts per minute, while the x-axis reflects time of elution and has units of minutes. […] Mass-to-charge ratios are measured by mass spectrometry.
# [2] = biological target: T1, CYP3A4 (Homo sapiens, UniProt P08684); test: Incubation of Compound A with CYP3A4 SUPERSOMES and NADPH-generating system; assay type: in vitro ADME
# T1 construct: purchased; host or cells: An insect cell host is inferred from the 'Insect Microsomes' control
# Procedure: as §1, §2, §3
# [3] = Incubation of Compound A with Control Insect Microsomes and NADPH-generating system; assay type: in vitro ADME; details: Compound A 50 μM, 120 min, Control Insect Microsomes, FIG. 3
# Procedure: Incubation mixtures contained cytochrome P450 (1 nmol/mL for human liver microsomes or 0.2 nmol/mL for CYP3A4), β-NADP^+ (1 mM), glucose-6-phosphate (5 mM), glucose-6-phosphate dehydrogenase (1.5 units/mL) and 3 mM magnesium chloride in 0.5 mL of 50 mM potassium phosphate buffer (pH 7.4). Prior to the addition of drug, incubation mixtures were pre-incubated for 3 min at about 37° C. […] Boiled human liver microsomes and incubations without NADPH served as negative control. A discussion of HPLC is provided in “HPLC in Pharmaceutical Analysis,” vol. I, G. Szepesi (1990). A discussion of mass spectrometry is provided in “Remington: The Science and Practice of Pharmacy,” 20th Ed., D. Limmer, ed., pp. 636-639 (2000).
# Radiometric profiles of metabolites following 120 min incubation of Compound A (50 μM) with CYP3A4, Human Liver Microsomes, and Insect Microsomes, all with a NADPH-generating system, are shown in FIGS. 1, 2, and 3, respectively. In these figures, the y-axis reflects radioactivity of the eluted species and has units of counts per minute, while the x-axis reflects time of elution and has units of minutes. Each peak represents one or more compounds, and each of the more significant peaks is labeled with the mass-to-charge ratio value (m/z) of that compound. Mass-to-charge ratios are measured by mass spectrometry.
# [4] = biological target: T2, PDE 5 (Homo sapiens, UniProt O76074); details: disclosed in U.S. Ser. No. 09/940,760; cited from earlier work
# [5] = biological target: T2, PDE 5; test: PDE 5 inhibitory activity; assay type: biochemical; details: target not stated at the place; PDE 5 from context
# [6] = Circulating metabolites after single oral administration of Compound A to humans; assay type: in vivo; details: single administration of Compound A 100 mg PO
# T1 sequence (P08684 whole entry): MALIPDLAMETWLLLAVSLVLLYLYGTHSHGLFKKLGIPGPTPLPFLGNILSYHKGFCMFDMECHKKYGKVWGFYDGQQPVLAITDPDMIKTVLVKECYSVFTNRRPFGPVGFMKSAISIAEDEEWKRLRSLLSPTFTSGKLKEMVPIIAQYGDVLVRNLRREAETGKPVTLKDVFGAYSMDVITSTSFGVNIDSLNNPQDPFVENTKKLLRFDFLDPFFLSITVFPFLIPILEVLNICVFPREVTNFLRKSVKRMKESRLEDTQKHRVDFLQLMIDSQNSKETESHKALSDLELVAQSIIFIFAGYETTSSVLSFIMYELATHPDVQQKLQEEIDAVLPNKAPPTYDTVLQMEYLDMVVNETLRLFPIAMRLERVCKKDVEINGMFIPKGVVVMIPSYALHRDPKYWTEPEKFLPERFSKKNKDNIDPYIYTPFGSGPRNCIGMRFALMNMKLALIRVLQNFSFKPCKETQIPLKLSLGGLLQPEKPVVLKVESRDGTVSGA
Compound,"extent of metabolism ([1]; 1, 5 and 50 μM, human liver microsomes 1 nmol/mL, NADPH-generating system)","activity with respect to the formation of Compound C ([2]; 50 μM Compound A, cDNA-expressed CYP3A4)",metabolite formation [3],PDE 5 inhibitory activity [4],IC50 [5] [µM],"metabolite formed from Compound A (radiometric profile) ([1]; Compound A 50 μM, 120 min, Human Liver Microsomes, FIG. 2)","metabolite formed from Compound A (radiometric profile) ([2]; Compound A 50 μM, 120 min, CYP3A4, FIG. 1)",circulating metabolite in human [6]
CCn1c(=O)c2c(nc(N[C@@H]3CCC[C@H]3O)n2Cc2ccc(OC)c(Br)c2)n(CCO)c1=O [Compound A],metabolized extensively,exhibited the greatest activity,no major metabolite formation was observed,having PDE 5 inhibitory activity,–,–,–,–
"CCn1c(=O)c2c(nc(N)n2Cc2ccc(OC)c(Br)c2)n(CCO)c1=O [Compound C, 8-Amino-7-[(3-Bromo-4-Methoxyphenyl)Methyl]-1-Ethyl-3,7-Dihydro-3-(2-Hydroxyethyl)-1H-Purine-2,6-Dione]",–,–,–,–,0.071,significant metabolite,significant metabolite,one of the major circulating metabolites; also recorded: prominent circulating metabolite
